Experimental data as given in patent US20260132165A1, “MODIFIED NUCLEOSIDE ANALOGUE AND USE THEREOF, AND NUCLEOSIDE ANALOGUE-CONTAINING DOUBLE-STRANDED OLIGONUCLEOTIDE AND USE THEREOF” (RIGERNA THERAPEUTICS (BEIJING) CO., LTD., priority 2023, published 2026).
Several values for one entry are separate records, joined by “and”; a condition that tells them apart may be missing. Identical values can stand only once.

Tests used:
[1] = test system: target gene Superoxide Dismutase 1 (SOD1); assay: Test Example 1: inhibitory activity of NM031 conjugated siRNA on SOD1 by lateral ventricular administration to mice (real-time PCR, ΔΔCt); type: in vivo, C57BL/6j mice; conditions: lateral ventricle, 200 μg per mouse, D5
Text: In the context of the present disclosure, unless otherwise stated, Real-time PCR detection data in in vivo activity experiments involved in the present disclosure are all used for relative quantitative calculation of gene mRNA of interest in various test groups by a ΔΔCt method, and a calculation method is summarized as follows:
Taking the control group as reference, expression level of the gene mRNA of interest in the test group is normalized, and remaining expression level of the gene mRNA of interest in the […] is defined as 100%.
6-8 Week-old C57BL/6j mice were randomly grouped by body weight, 5 per group, 2 groups in total, i.e., PBS group (dosed with siRNA-free PBS solution) and RZ899008 group (dosed with siRNA RZ899008 (the sense strand with the NM031 conjugation at Position 4) prepared in Example 1). Mice in each group were anaesthetized by intraperitoneal injection of 5% chloral hydrate, and were immobilized with the cerebral stereotaxic apparatus after being anaesthetized. Head skin was cut, positioning coordinates of right lateral ventricle were found with the stereotaxic apparatus and position was marked on surface of skull, wherein the positioning coordinates of the lateral ventricle were as follows: in coordinate axes with Bregma point as an origin, ML (mediolateral, left and right of middle raphe, i.e., X-axis) value=1.2 mm, and AP (anteroposterior, bregma anterior and posterior, i.e., Y-axis) value=−0.58 mm, and DV (dorsoventral, down skull (cerebral dura mater) plane, i.e., Z-axis) value=2.2 mm. A dental electric drill was used to drill in the skull above a position of interest, and then sucked drug was injected into the lateral ventricle by a micro-dosing pump. An administration dose to each mouse in the RZ899008 group was 200 μg (dose being measured as siRNA, concentration of siRNA being 20 μg/μL, PBS buffer as a solvent), and a total injection volume was […]. PBS group was administered with the same volume of siRNA-free PBS solution. […] The day of administration was recorded as first day (D1), and the mice were sacrificed on the fifth day (D5). […]

SOD1 = assay: Test Example 2: inhibitory activity of NM031 conjugated siRNA on SOD1 by intrathecal administration to mice; type: in vivo, C57BL/6j mice; conditions: D9
Protocol: 6-8 Week-old C57BL/6j mice were randomly grouped into 4 groups by body weight. PBS group was dosed with siRNA-free PBS solution, RX899001 group was dosed with siRNA compound RX899001 without vector conjugation, RZ899001 group was dosed with siRNA RZ899001 (the sense strand with the Uhd conjugation at Position 4) prepared in Example 1, and RZ899008 was dosed with siRNA RZ899008 (the sense strand with the NM031 conjugation at Position 4) prepared in Example 1. Mices in each group were anesthetized with isoflurane. After anesthetization, lumbar region thereof was sprayed wet with 75% disinfecting alcohol. 10 μL (concentration […]) of siRNA drug containing PBS solvent was sucked with an insulin injection needle, the mouse lumbar region was pinched with the left-hand index finger and thumb, patella crest was propped against, and needle was held by the right hand. The needle was bent by forceps in advance, wherein the needle was first bent in the middle by 80° to 90°, then a front half part of the needle was bent in half, and the whole needle was bent in an are shape of about 60° to 90°. Mouse abdominal region was padded with an article with a thickness of about 2 cm. The needle was inserted from a joint of lumbar spines L5 and L6 of mice, and when inserting the needle, the hand was slightly inclined forwards to insert the needle. […] After completion of the injection, the needle was slowly withdrawn at uniform velocity. The administration dose to each mouse in RX899001 group, RZ899001 group and RZ899008 group was 800 μg, a total volume injected was 10 μL, and the PBS group was administered with the same volume of siRNA-free PBS solution. After the animals woke up, the animals were returned back to the animal feeding room and further fed. The day of administration was recorded as first day (D1), and the mice were sacrificed on ninth day (D9). Lumbar spine, thoracic spine and cerebellum were respectively taken and stored in the RNAlater.
RNA extraction: an appropriate amount of lumbar spine, thoracic spine and cerebellum samples were respectively taken out from the RNAlater, and smashed for 60 s in Tissuelyser type II full-automatic tissue homogenizer, and total RNAs of various tissue samples were extracted using the full-automatic nucleic acid extraction instrument and the nucleic acid extraction kit from Zhejiang Hanwei Science and Technology Co. Ltd. according to methods described in instructions. Reverse transcription reaction: 1 μg of the extracted total RNAs of various tissue samples were respectively taken, and configured into 20 μL of reverse transcription system according to a method described in kit instructions by using a reverse transcription kit (Reverse Transcription System, A3500) from Promega Corporation and selecting Oligo (dT)15 reverse transcription primers, and the reverse transcription reaction was completed. After the reaction was ended, 80 μL of RNase-Free water was added into the reverse transcription system to provide cDNA solution for Real-time PCR detection.
Real-time PCR detection: 20 μL of Real-time PCR reaction system per PCR detection well was configured according to a method described in kit instructions using SYBR™ Select Master Mix (Catalog number: 4472908) reagent from ABI company. Each detection system contained 5 μL of cDNA template obtained from the above reverse transcription reaction, 10 μL of SYBR™ Select Master Mix, 0.5 μL of 10 μM upstream primers, 0.5 μL of 10 μM downstream primers (see TABLE 5 for primer information), and 4 μL of RNase-Free H2O. The configured reaction system was subjected to Real-time PCR amplification on ABI StepOnePlus PCR instrument by a three-step method, wherein an amplification procedure was pre-denaturation at 95° C. for 10 min, then denaturation at 95° C. for 30 s, annealing at 60° C. for 30 s, and extension at 72° C. for 30 s; and processes of denaturation, annealing, and extension were repeated for 40 cycles. […]

RZ899008: siRNA, the sense strand with the NM031 conjugation at Position 4; SEQ ID NO: 3 / 2 (sense UUUNAAUCCUCACUCUAAA; antisense UUUAGAGUGAGGAUUAAAAUG; NM031 conjugate at sense position 4; modified_base 1..2 OTHER; 2'-methoxy and 5'-thiophosphate modified nucleotides; modified_base 3 OTHER; 2'-methoxy modified nucleotide; modified_base 4 OTHER; n is the synthetic nucleotide analog NM031 as described in the disclosure (e.g., NM031-1 ((1-[(2R,3R,4S,5R)-5-{[bis(4-methoxyphenyl)(phenyl)methoxy]methyl}-3,4-dihydroxyoxolan-2-yl]-3H-pyrimidin-2,4-dione)).; modified_base 5..6 OTHER; 2'-meth; modified_base 1 OTHER; 2'-methoxy and 5'-thiophosphate modified nucleotide; modified_base 2 OTHER; 2'-fluoro and 5'-thiophosphate modified nucleotide; …)
Hippocampus Mean value of inhibition rate % ([1]; administration-side hippocampus): 82.94% | Parietal cortex Mean value of inhibition rate % ([1]; administration-side parietal cortex): 73.57% | Cerebellum Mean value of inhibition rate % ([1]; cerebellum): 40.08% | Cerebellum Mean value of inhibition rate % (SOD1; cerebellum, intrathecal, 800 μg per mouse): 67.72% | activity compared with control molecule RZ899001 and molecule RX899001 without vector conjugation (SOD1; lumbar spine, thoracic spine and cerebellum, intrathecal 800 μg per mouse): superior | Lumbar spine Mean value of inhibition rate % (SOD1; lumbar spine, intrathecal, 800 μg per mouse): 80.09% and 78.99% | Thoracic spine Mean value of inhibition rate % (SOD1; thoracic spine, intrathecal, 800 μg per mouse): 78.99% and 80.09%
